This passage reports IC50 and IC90 results from ChEMBL document CHEMBL1141903, “Synthesis and evaluation of CCR5 antagonists containing modified 4-piperidinyl-2-phenyl-1-(phenylsulfonylamino)-butane” (Bioorg Med Chem Lett, 2005).

Test [1] concerns the target C-C chemokine receptor type 5 (Homo sapiens, UniProt P51681). The test is described as follows: Inhibitory concentration against human C-C chemokine receptor type 5 in CHO cells with [125I]-MIP-1 alpha radioligand. The test is classed as cell-based.
For test [2], the system named is Human immunodeficiency virus 1. The test is described as follows: Antiviral activity in an in vitro HIV replication assay. The test is classed as functional, organism-based.

C-C chemokine receptor type 5, sequence (P51681 whole entry): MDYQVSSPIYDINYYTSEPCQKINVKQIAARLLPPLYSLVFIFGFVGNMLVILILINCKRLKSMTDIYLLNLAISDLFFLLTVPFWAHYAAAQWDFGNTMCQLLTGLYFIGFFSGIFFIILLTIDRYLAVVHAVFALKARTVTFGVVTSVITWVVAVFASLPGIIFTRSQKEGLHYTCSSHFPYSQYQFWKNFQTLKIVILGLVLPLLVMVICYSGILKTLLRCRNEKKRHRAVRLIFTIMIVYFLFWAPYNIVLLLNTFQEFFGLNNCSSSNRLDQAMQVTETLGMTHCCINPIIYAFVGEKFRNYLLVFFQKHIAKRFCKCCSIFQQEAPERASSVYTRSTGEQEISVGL

With `CN(C[C@@H](CCN1CCC(N2C[C@H](c3ccccc3)OC2=O)CC1)c1ccccc1)S(=O)(=O)c1ccccc1`, in test [1], the IC50 is > 100 nM.
Regarding `C[C@H]1[C@@H](c2ccccc2)OC(=O)N1C1CCN(CC[C@H](CN(C)S(=O)(=O)c2ccccc2)c2ccccc2)CC1`, in test [1], the IC50 is 36.7 nM.
In test [1], `C[C@@H]1[C@@H](c2ccccc2)OC(=O)N1C1CCN(CC[C@H](CN(C)S(=O)(=O)c2ccccc2)c2ccccc2)CC1` came in with an IC50 of 350 nM.
In the case of `CN(C[C@@H](CCN1CCC(N2C[C@@H](c3ccccc3)OC2=O)CC1)c1ccccc1)S(=O)(=O)c1ccccc1`, the IC50 in test [1] was 31.9 nM.
With `CN(C[C@@H](CCN1CCC2C(CCN2C(=O)OC(C)(C)C)C1)c1ccccc1)S(=O)(=O)c1ccccc1` (some centres undefined), the IC50 in test [1] stood at 16 nM.
Compound `CN(C[C@@](C)(CCN1CCC2C(CCC(=O)N2Cc2ccccc2)C1)c1ccccc1)S(=O)(=O)c1ccccc1` (some centres undefined) yielded an IC50 in test [1] of 10 nM. The IC90 in test [2] (Human immunodeficiency virus 1) is 333 nM.
Take `C=CCN(C(=O)OCc1ccc([N+](=O)[O-])cc1)C1CCN(CC[C@](C)(CN(C)S(=O)(=O)c2ccccc2)c2ccccc2)CC1`: the IC50 in test [1] is 1 nM. The compound further returned an IC90 in test [2] (Human immunodeficiency virus 1) of 3 nM.
In test [1], `CN(C[C@](C)(CCN1CCC2C(CCN2C(=O)OCc2ccc([N+](=O)[O-])cc2)C1)c1ccccc1)S(=O)(=O)c1ccccc1` (mixture of isomers) showed an IC50 of 3.6 nM. This compound returned an IC90 in test [2] (Human immunodeficiency virus 1) of 111 nM.
The compound `CN(C[C@@](C)(CCN1CCC2C(CCN2C(=O)OCc2ccccc2)C1)c1ccccc1)S(=O)(=O)c1ccccc1` (mixture of isomers) gave an IC50 in test [1] of 9 nM. The IC90 in test [2] (Human immunodeficiency virus 1) was > 300 nM.
Take `CN(C[C@@](C)(CCN1CCC2C(CCC(=O)N2Cc2ccc([N+](=O)[O-])cc2)C1)c1ccccc1)S(=O)(=O)c1ccccc1` (mixture of isomers): the IC50 in test [1] was determined as 5.3 nM. The IC90 in test [2] (Human immunodeficiency virus 1) stood at 333 nM.
Consider `CN1C(=O)CCC2CN(CC[C@](C)(CN(C)S(=O)(=O)c3ccccc3)c3ccccc3)CCC21` (mixture of isomers), for which, in test [1], the IC50 was found to be 28 nM. Besides, in test [2] (Human immunodeficiency virus 1), the IC90 is > 300 nM.
`CN(C[C@@](C)(CCN1CCC2C(CCN2C(=O)OC(C)(C)C)C1)c1ccccc1)S(=O)(=O)c1ccccc1` (mixture of isomers) yielded an IC50 in test [1] of 11 nM. In addition, the IC90 in test [2] (Human immunodeficiency virus 1) came out at 111 nM.
On to `CN(C[C@@](C)(CCN1CCC2NCCC2C1)c1ccccc1)S(=O)(=O)c1ccccc1` (mixture of isomers), for which the IC50 in test [1] was > 2000 nM.
`CN(C[C@@](C)(CCN1CCC2C(CCN2C(=O)Cc2ccccc2)C1)c1ccccc1)S(=O)(=O)c1ccccc1` (mixture of isomers) gave an IC50 in test [1] of 6.4 nM. In test [2] (Human immunodeficiency virus 1), this compound registered an IC90 of 111 nM.
In the case of `CN(CC(C)(CCN1CCC2C(CCN2C(=O)OC(C)(C)C)C1)c1ccccc1)S(=O)(=O)c1ccccc1` (single isomer, unassigned; isomer A), in test [1], the IC50 is > 2000 nM.
In test [1], `CN(CC(C)(CCN1CCC2C(CCN2C(=O)OCc2ccc([N+](=O)[O-])cc2)C1)c1ccccc1)S(=O)(=O)c1ccccc1` (single isomer, unassigned; isomer A) gave an IC50 of 21 nM. In addition, the IC90 in test [2] worked out at 300 nM.
As to `CN(CC(C)(CCN1CCC2C(CCN2C(=O)OC(C)(C)C)C1)c1ccccc1)S(=O)(=O)c1ccccc1` (single isomer, unassigned; isomer B), the IC50 in test [1] worked out at 2 nM. In test [2] (Human immunodeficiency virus 1), the 90% effect level (IC90) was put at 100 nM.
Take `CN(CC(C)(CCN1CCC2C(CCN2C(=O)OCc2ccc([N+](=O)[O-])cc2)C1)c1ccccc1)S(=O)(=O)c1ccccc1` (single isomer, unassigned; isomer B): the IC50 in test [1] was found to be 2 nM. Further, the 90% effect level in test [2] (IC90) was put at 33 nM.
